Assay results as given in patent US4264598A (priority 1980, dated 1981).

How the values were obtained:
Phytophthora infestans = format: in vivo, Phytophthora infestans (host: tomato, cultivar Bonny Best); details: 250 ppm spray; inoculated one day later; approximately 7 days in greenhouse; relative to untreated check plants
Uronyces phaseoli tipica = assay: Leaf rust, % disease control; format: in vivo, Uronyces phaseoli tipica (host: pinto beans); details: 250 ppm spray; inoculated thereafter; rated after about 14 days; relative to untreated check plants
Description: The leaf-rust was made using pinto beans. The pathogen was Uronyces phaseoli tipica. The pinto-bean plants were sprayed with a 250-ppm solution of the test compound in an acetone-water mixture containing a nonionic emulsifier. The treated plants were inoculated thereafter with the pathogen and then incubated in an environmental chamber for approximately 20 hours at 100% relative humidity and a temperature of 68°-70° F. The plants were then removed from the chamber, allowed to dry, and then maintained in a greenhouse at a 60-80% relative humidity. The rate of infection on the leaves was made after about 14 days. The percent disease control provided by a given test compound was based on the disease reduction relative to untreated check plants.

Erysiphe polygoni = assay: Powdery mildew, % disease control; format: in vivo, Erysiphe polygoni (host: bean seedlings, var. Bountiful); details: 250 ppm spray; inoculated one day later; rated after about 10 days; relative to untreated check plants
Description: The powdery mildew test was made using bean seedlings (var. Bountiful) with well-developed primary leaves. The pathogen was Erysiphe polygoni. The bean seedlings were sprayed with a 250-ppm solution of the test compound in an acetone-water mixture containing a nonionic emulsifier. The treated plants were inoculated one day after spray application of the test compound with the pathogen. The plants were then maintained in a greenhouse at a 60-80% relative humidity and at a temperature of 68°-70° F. The rate of infection on the leaves was made after about 10 days. The percent disease control provided by a given test compound was based on the disease reduction relative to untreated check plants.

Septoria apii = format: in vivo, Septoria apii (host: celery, Utah); details: 250 ppm (Table I default); approximately 48 hours incubation then approximately 14 days; relative to untreated check plants
[1] = test system: Alternaria solani conidia; assay: Tomato early blight, % disease control; format: in vivo, Alternaria solani (host: tomato, variety Bonny Best); details: 250 ppm spray; inoculated one day later; about 12 days; relative to untreated check plants
Description: Compounds of the invention were tested for the control of the Tomato Early Blight organism, Alternaria solani conidia. Tomato (variety Bonny Best) seedlings of 6 to 7 weeks old were used. The tomato plants were sprayed with a 250-ppm solution of the test compound in an acetone-and-water solution containing a small amount of a nonionic emulsifier. The sprayed plants were inoculated one day later with the organism, dried and maintained at 60-80% relative humidity for about 12 days. Percent disease control was based on the percent disease development on untreated check plants.

Compound: C#CC(C)(C)N1CN(C(C)(C)C#C)CN(C(C)(C)C#C)C1 [Compound 2, 1,3,5-(1',1'-dimethyl-propargyl)-hexahydro-1,3,5-triazine]
- Fungicidal efficacy, % control, TLB (Phytophthora infestans): 0%
- Fungicidal efficacy, % control, LR (Uronyces phaseoli tipica): 0%
- Fungicidal efficacy, % control, PM (Erysiphe polygoni): 0%
- Fungicidal efficacy, % control, CLB (Septoria apii): 27%
- Fungicidal efficacy, % control, TEB [1]: 0%

Compound: C#CC1(N2CN(C3(C#C)CCCCC3)CN(C3(C#C)CCCCC3)C2)CCCCC1 [Compound 1, 1,3,5-TRI(1'-ETHYNYLCYCLOHEXYL)-HEXAHYDRO-1,3,5-TRIAZINE]
- Fungicidal efficacy, % control, TLB (Phytophthora infestans): 100%
- Fungicidal efficacy, % control, LR (Uronyces phaseoli tipica): 0%
- Fungicidal efficacy, % control, PM (Erysiphe polygoni): 37%
- Fungicidal efficacy, % control, CLB (Septoria apii): 74%
- Fungicidal efficacy, % control, TEB [1]: 100%
